Measured values taken from US10287277B2, “Fumagillol derivatives and polymorphs thereof” (SynDevRx, Inc., priority 2015, dated 2019).

What was measured:
BC-1 (B-Cell Lymphoma) = assay: Single agent cell viability assay (CellTiter-Glo), 72 h continuous exposure; type: cell-based; conditions: Homo sapiens, BC1, BC-1 cells
Method: (§1) The half-maximal inhibitory concentration(s) (IC50) of Formula I as a single agent against a panel of human hematological tumor cell lines was investigated. All cell lines were grown in their respective proper growth media supplemented with 5-10% FBS and housed in an atmosphere of 5% CO2 at 37° C.
(§2) Cell Viability Assay—72 Hours Continuous Exposure Time
(§3) 1. 0 hr: Cells were plated in growth media in 96-well microtiter plates at a 200 μL volume. Cells were incubated for 24 hours at 37° C. in a humidified incubator.
(§4) 2. 24 hr: The test agent's drug doses were achieved using HP D300 Digital Dispenser. Briefly, the digital dispenser added test agent in a DMSO solvent at precise volumes to media containing wells. Control wells received equivolumes of DMSO that test agents wells received. Following drugging, cells were exposed at the concentrations and dilutions described in Table 20 for 72 hours at 37° C. in a humidified incubator.
(§5) 3. 72 hr: Following 72 hour exposure, 100 μl of a 1:1 mixture of sterile water and CellTiter-Glo® Reagent was added to each well. The plates are incubated for 60 minutes at room temperature. After incubation, luminescence was recorded using a luminometer. The results are shown below in Table 21 and in FIGS. 15A, 15B, 15C and 15D.
(§6) Data is expressed as the percent cell growth of the untreated (vehicle) control calculated from the luminescence signals. The surviving fraction of cells was determined by dividing the mean luminescence values of the test agents by the mean luminescence values of untreated control. The inhibitory concentration value for the test agent(s) and control was estimated using Prism 6 software (GraphPad Software, Inc.) by curve-fitting the data using the non-linear regression analysis.

[1] = tested on: SU-DHL-10 (Diffuse Large B-Cell Lymphoma); assay: as above; type: cell-based; conditions: Homo sapiens, SU-DHL10, SU-DHL-10 cells
Method: as §1, §2, §3, §4, §5, §6

[2] = tested on: Jeko-1 (Mantle Cell Lymphoma); assay: as above; type: cell-based; conditions: Homo sapiens, Jeko-1 cells
Method: as §1, §2, §3, §4, §5, §6

U266 (Myeloma) = assay: as above; type: cell-based; conditions: Homo sapiens, U-266, U266 cells
Method: as §1, §2, §3, §4, §5, §6

[3] = Storage stability, 25° C., 60% RH; type: physicochemical; conditions: for Appearance / Impurity Compound 2 / Impurity Compound 4 / Impurity Compound 5 / Largest individual unknown impurity / Total Impurities / Water Content: 25° C., 60% RH
Method: (§7) As shown below, the compounds can remain >99% pure after being held at 25° C. and 60% relative humidity for six months. The compounds can remain >95% pure after being held at 40° C. and 75% relative humidity for six months.

[4] = Storage stability, 40° C., 75% RH; type: physicochemical; conditions: for Appearance / Impurity Compound 2 / Impurity Compound 4 / Impurity Compound 5 / Largest individual unknown impurity / Total Impurities / Water Content: 40° C., 75% RH
Method: as §7

[5] = Stability of salt forms versus free base (statement in words); conditions: comparison of free base, hemi-tartrate and benzenesulfonic acid salt

SMILES: COc1cccc2c1C(=O)c1c(O)c3c(c(O)c1C2=O)C[C@@](O)(C(=O)CO)C[C@@H]3O[C@H]1C[C@H](N)[C@H](O)[C@H](C)O1 [Adriamycin, reference compound]
- IC50 (BC-1 (B-Cell Lymphoma)): 0.02 µM
- IC50 [1]: 0.00085 µM

SMILES: CC(C)C[C@H](NC(=O)[C@H](Cc1ccccc1)NC(=O)c1cnccn1)B(O)O [Bortezomib, reference compound]
- IC50 [2]: 0.4 µM
- IC50 (U266 (Myeloma)): 0.0024 µM

SMILES: CO[C@@H]1[C@H](OC(=O)N[C@H]2CC[C@H](N)CC2)CC[C@]2(CO2)[C@H]1[C@@]1(C)O[C@@H]1CC=C(C)C.O=S(=O)(O)c1ccccc1 [Form II of Formula I, fumagill-6-yl N-(trans-4-aminocyclohexyl)carbamate benzenesulfonic acid salt]
- Appearance ([3]; 0 Months): White powder,
- Impurity Compound 2 ([3]; 0 Months): <0.1%
- Impurity Compound 4 ([3]; 0 Months): <0.1%
- Impurity Compound 5 ([3]; 0 Months): 0.1%
- Largest individual unknown impurity ([3]; 0 Months): <0.1%
- Total Impurities ([3]; 0 Months): 0.1%
- Water Content ([3]; 0 Months): 0.41%
- Appearance ([3]; 1 Month): White powder,
- Impurity Compound 2 ([3]; 1 Month): 0.3%
- Impurity Compound 5 ([3]; 1 Month): 0.1%
- Largest individual unknown impurity ([3]; 1 Month): <0.1%
- Total Impurities ([3]; 1 Month): 0.5%
- Water Content ([3]; 1 Month): 0.60%
- Appearance ([3]; 2 Months): White powder,
- Impurity Compound 2 ([3]; 2 Months): 0.4%
- Impurity Compound 4 ([3]; 2 Months): 0.1%
- Impurity Compound 5 ([3]; 2 Months): 0.1%
- Largest individual unknown impurity ([3]; 2 Months): <0.1%
- Total Impurities ([3]; 2 Months): 0.5%
- Water Content ([3]; 2 Months): 0.57%
- Appearance ([3]; 3 Months): White powder,
- Impurity Compound 2 ([3]; 3 Months): 0.5%
- Impurity Compound 4 ([3]; 3 Months): 0.1%
- Impurity Compound 5 ([3]; 3 Months): 0.1%
- Largest individual unknown impurity ([3]; 3 Months): <0.1%
- Total Impurities ([3]; 3 Months): 0.7%
- Water Content ([3]; 3 Months): 1.73%
- Appearance ([3]; 6 months): White powder,
- Impurity Compound 2 ([3]; 6 months): 0.6%
- Impurity Compound 4 ([3]; 6 months): 0.1%
- Impurity Compound 5 ([3]; 6 months): 0.1%
- Largest individual unknown impurity ([3]; 6 months): <0.1%
- Total Impurities ([3]; 6 months): 0.9%
- Water Content ([3]; 6 months): 1.58%
- purity remaining after storage ([3]; held at 25° C. and 60% relative humidity for six months): > 99%
- Appearance ([4]; 0 Months): White powder,
- Impurity Compound 2 ([4]; 0 Months): <0.1%
- Impurity Compound 4 ([4]; 0 Months): <0.1%
- Impurity Compound 5 ([4]; 0 Months): 0.1%
- Largest individual unknown impurity ([4]; 0 Months): <0.1%
- Total Impurities ([4]; 0 Months): 0.1%
- Water Content ([4]; 0 Months): 0.41%
- Appearance ([4]; 1 Month): White powder,
- Impurity Compound 2 ([4]; 1 Month): 1.0%
- Impurity Compound 5 ([4]; 1 Month): 0.1%
- Largest individual unknown impurity ([4]; 1 Month): 0.2%
- Total Impurities ([4]; 1 Month): 1.5%
- Water Content ([4]; 1 Month): 1.54%
- Appearance ([4]; 2 Months): White powder,
- Impurity Compound 2 ([4]; 2 Months): 1.4%
- Impurity Compound 4 ([4]; 2 Months): 0.3%
- Impurity Compound 5 ([4]; 2 Months): 0.1%
- Largest individual unknown impurity ([4]; 2 Months): 0.3%
- Total Impurities ([4]; 2 Months): 2.4%
- Water Content ([4]; 2 Months): 1.19%
- Appearance ([4]; 3 Months): White powder,
- Impurity Compound 2 ([4]; 3 Months): 1.6%
- Impurity Compound 4 ([4]; 3 Months): 0.5%
- Impurity Compound 5 ([4]; 3 Months): 0.2%
- Largest individual unknown impurity ([4]; 3 Months): 0.4%
- Total Impurities ([4]; 3 Months): 3.1%
- Water Content ([4]; 3 Months): 2.57%
- Appearance ([4]; 6 months): White powder,
- Impurity Compound 2 ([4]; 6 months): 1.5%
- Impurity Compound 4 ([4]; 6 months): 1.4%
- Impurity Compound 5 ([4]; 6 months): 0.5%
- Largest individual unknown impurity ([4]; 6 months): 0.3%
- Total Impurities ([4]; 6 months): 4.2%
- Water Content ([4]; 6 months): 3.19%
- purity remaining after storage ([4]; held at 40° C. and 75% relative humidity for six months): > 95%

SMILES: COC1C(OC(=O)N[C@H]2CC[C@H](N)CC2)CC[C@]2(CO2)C1C1(C)O[C@@H]1CC=C(C)C (stereo partly drawn) [Formula I, (1R,4r)-4-(((((3R,4S,5S,6R)-5-methoxy-4-((2R,3R)-2-methyl-3-(3-methylbut-2-en-1-yl)oxiran-2-yl)-1-oxaspiro[2.5]octan-6-yl)oxy)carbonyl)amino)cyclohexan-1-aminium benzenesulfonate]
- IC50 (BC-1 (B-Cell Lymphoma)): 20.4 µM
- IC50 [2]: 30.7 µM
- IC50 [1]: 6.2 µM
- IC50 (U266 (Myeloma)): 54.6 µM

SMILES: COC1C(OC(=O)N[C@H]2CC[C@H](N)CC2)CCC2(CO2)C1C1(C)OC1CC=C(C)C (stereo partly drawn) [free base form of Formula I, fumagill-6-yl N-(trans-4-aminocyclohexyl)carbamate]
- stability (in words) [5]: inherently unstable
